Experimental data as given in US11046680B1, “Heteroaryl-substituted triazoles as APJ receptor agonists” (priority 2016, dated 2021).

Biological target: human APJ receptor (Homo sapiens (Human), UniProt P35414)
Test: biochemical
Assay type: biochemical
Settings: [35S]GTPγS binding, CHO membranes expressing human APJ receptor; read-out: Activity hAPJ SPA EC50 IP
Outline: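 Membranes of a stable CHO line carrying human APJ (pFLAG-CMV-3) were used in a GTPγS binding format; buffer GDP, MgCl2 and NaCl were optimized, and plates were read after 90 min at RT.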

Chain of human APJ receptor (P35414 whole entry): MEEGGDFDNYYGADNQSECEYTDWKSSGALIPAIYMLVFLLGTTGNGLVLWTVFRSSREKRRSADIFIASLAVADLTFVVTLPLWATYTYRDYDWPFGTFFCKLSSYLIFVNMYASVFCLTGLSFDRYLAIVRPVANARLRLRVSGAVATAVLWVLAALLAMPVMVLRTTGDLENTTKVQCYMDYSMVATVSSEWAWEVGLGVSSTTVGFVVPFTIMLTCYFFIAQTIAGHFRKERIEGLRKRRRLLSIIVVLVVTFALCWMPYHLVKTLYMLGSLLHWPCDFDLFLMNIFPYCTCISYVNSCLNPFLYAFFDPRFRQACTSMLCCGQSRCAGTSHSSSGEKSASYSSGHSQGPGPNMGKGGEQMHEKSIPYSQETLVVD

## COCC(COC)n1c(NS(=O)(=O)[C@@H](C)[C@H](C)c2ncc(Cl)cn2)nnc1-c1nn(C)c2ccccc12 [Example 449.0, (2S,3R)-3-(5-chloropyrimidin-2-yl)-N-(4-(1,3-dimethoxypropan-2-yl)-5-(1-methyl-1H-indazol-3-yl)-4H-1,2,4-triazol-3-yl)butane-2-sulfonamide]
  EC50: 0.013 µM

## COc1cccc(OC)c1-n1c(NS(=O)(=O)[C@@H](C)[C@H](OC)c2ncc(C)cn2)nnc1-c1n[nH]c2ccccc12 [Example 411.0]
  EC50: 0.058 µM

## COc1cccc(OC)c1-n1c(NS(=O)(=O)[C@H](C)Cc2ncc(F)cn2)nnc1-c1ccncn1 (single isomer, unassigned) [Example 39.0, (R)-N-(4-(2,6-dimethoxyphenyl)-5-(pyrimidin-4-yl)-4H-1,2,4-triazol-3-yl)-1-(5-fluoropyrimidin-2-yl)propane-2-sulfonamide or (R)-N-(4-(2,6-dimethoxyphenyl)-5-(pyrimidin-4-yl)-4H-1,2,4-triazol-3-yl)-1-(5-fluoropyrimidin-2-yl)propane-2-sulfonamide]
  EC50: 0.23 µM

## COc1cccc(OC)c1-n1c(NS(=O)(=O)[C@@H](C)[C@H](C)c2cnc(C)cn2)nnc1-c1ccn(C)n1 [Example 306.0, (2S,3R)-N-(4-(2,6-dimethoxyphenyl)-5-(1-methyl-1H-pyrazol-3-yl)-4H-1,2,4-triazol-3-yl)-3-(5-methyl-2-pyrazinyl)-2-butanesulfonamide]
  EC50: 0.0025 µM

## CNC(=O)n1ccc(-c2nnc(NS(=O)(=O)[C@@H](C)Cc3ncc(F)cn3)n2-c2c(OC)cccc2OC)n1 (single isomer, unassigned) [Example 73.0, (R)-3-(4-(2,6-dimethoxyphenyl)-5-(2-(5-fluoropyrimidin-2-yl)-1-methylethylsulfonamido)-4H-1,2,4-triazol-3-yl)-N-methyl-1H-pyrazole-1-carboxamide or (S)-3-(4-(2,6-dimethoxyphenyl)-5-(2-(5-fluoropyrimidin-2-yl)-1-methylethylsulfonamido)-4H-1,2,4-triazol-3-yl)-N-methyl-1H-pyrazole-1-carboxamide]
  EC50: 0.029 µM

## (R)-N-(4-(2,6-dimethoxyphenyl)-5-(1,5-dimethyl-1H-pyrazol-3-yl)-4H-1,2,4-triazol-3-yl)-1-(5-fluoropyrimidin-2-yl)propane-2-sulfonamide and (S)-N-(4-(2,6-dimethoxyphenyl)-5-(1,5-dimethyl-1H-pyrazol-3-yl)-4H-1,2,4-triazol-3-yl)-1-(5-fluoropyrimidin-2-yl)propane-2-sulfonamide [Example 53.0]
  EC50: 0.0097 µM

## (R)-N-(4-(2,6-dimethoxyphenyl)-5-(1,5-dimethyl-1H-pyrazol-3-yl)-4H-1,2,4-triazol-3-yl)-1-(5-fluoropyrimidin-2-yl)propane-2-sulfonamide and (S)-N-(4-(2,6-dimethoxyphenyl)-5-(1,5-dimethyl-1H-pyrazol-3-yl)-4H-1,2,4-triazol-3-yl)-1-(5-fluoropyrimidin-2-yl)propane-2-sulfonamide [Example 54.0]
  EC50: 0.033 µM

## COc1ccc2[nH]c(-c3nnc(NS(=O)(=O)[C@@H](C)[C@H](OC)c4ncc(C)cn4)n3-c3c(OC)cccc3OC)cc2c1 [Example 336.0, (1R,2S)-N-(4-(2,6-dimethoxyphenyl)-5-(5-methoxy-1H-indo1-2-yl)-4H-1,2,4-triazol-3-yl)-1-methoxy-1-(5-methyl-2-pyrimidinyl)-2-propanesulfonamide]
  EC50: 0.31 µM

## CNC(=O)n1ccc(-c2nnc(NS(=O)(=O)[C@@H](C)Cc3ncc(F)cn3)n2-c2c(OC)cccc2OC)n1 (racemic) [Example 72.0, (R)-3-(4-(2,6-dimethoxyphenyl)-5-(2-(5-fluoropyrimidin-2-yl)-1-methylethylsulfonamido)-4H-1,2,4-triazol-3-yl)-N-methyl-1H-pyrazole-1-carboxamide (S)-3-(4-(2,6-dimethoxyphenyl)-5-(2-(5-fluoropyrimidin-2-yl)-1-methylethylsulfonamido)-4H-1,2,4-triazol-3-yl)-N-methyl-1H-pyrazole-1-carboxamide]
  EC50: 0.041 µM
